#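 Results reflect a 48-hour exposure of cells in 96-well plates to compound at five concentrations. GI50 = concentration required for 50% inhibition of growth.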 Activity calls are given as the source filed them. Cut-off read from the data, not from the text of the source: active = GI50 up to about 1.1 µM and inactive = higher.
# Assays:
# Assay in all cases: growth of human tumour cells (NCI), 48 h
# HCT-15 = tested on: HCT-15
# UACC-62 = tested on: UACC-62
# HOP-18 = tested on: HOP-18
# KM12 = tested on: KM12
# SNB-19 = tested on: SNB-19
# SK-MEL-5 = tested on: SK-MEL-5
# SK-MEL-28 = tested on: SK-MEL-28
# DMS-273 = tested on: DMS-273
# SF-295 = tested on: SF-295
# IGROV-1 = tested on: IGROV-1
# U-251 = tested on: U-251
# RXF 631 = tested on: RXF 631
# K562 = tested on: K562
# SN12C = tested on: SN12C
# HT-29 = tested on: HT-29
# UACC-257 = tested on: UACC-257
# CAKI-1 = tested on: CAKI-1
# OVCAR-3 = tested on: OVCAR-3
# RPMI-8226 = tested on: RPMI-8226
# TK-10 = tested on: TK-10
# SNB-78 = tested on: SNB-78
# A549 = tested on: A549
# RXF 393 = tested on: RXF 393
# KM-20L2 = tested on: KM-20L2
# HCC 2998 = tested on: HCC 2998
# SF-539 = tested on: SF-539
# 786-0 = tested on: 786-0
# M19-MEL = tested on: M19-MEL
# SNB-75 = tested on: SNB-75
# EKVX = tested on: EKVX
# SW-620 = tested on: SW-620
# NCI-H460 = tested on: NCI-H460
# UO-31 = tested on: UO-31
# OVCAR-4 = tested on: OVCAR-4
# HL-60 = tested on: HL-60
# LXFL 529 = tested on: LXFL 529
# OVCAR-8 = tested on: OVCAR-8
# ACHN = tested on: ACHN
# HOP-62 = tested on: HOP-62
# SK-MEL-2 = tested on: SK-MEL-2
# COLO 205 = tested on: COLO 205
# A498 = tested on: A498
# CCRF-CEM = tested on: CCRF-CEM
# NCI-H522 = tested on: NCI-H522
# SF-268 = tested on: SF-268
# MOLT-4 = tested on: MOLT-4
# HCT-116 = tested on: HCT-116
# NCI-H23 = tested on: NCI-H23
# Malme-3M = tested on: Malme-3M
# DMS-114 = tested on: DMS-114
# XF498 = tested on: XF498
# SK-OV-3 = tested on: SK-OV-3
# M14 = tested on: M14
# DLD-1 = tested on: DLD-1
# SR = tested on: SR
# LOX IMVI = tested on: LOX IMVI
# OVCAR-5 = tested on: OVCAR-5
# HOP-92 = tested on: HOP-92
# NCI-H226 = tested on: NCI-H226
smiles,measurement,setting,value
O=[N+]([O-])c1ccc(Cl)cc1C1SCc2nc3ccccc3n21 (stereo not drawn),GI50,HCT-15,31 µM
same,GI50,UACC-62,61.8 µM (inactive)
same,GI50,HOP-18,13 µM (inactive)
same,GI50,KM12,41.9 µM (inactive)
same,GI50,SNB-19,74.6 µM (inactive)
same,GI50,SK-MEL-5,27.7 µM (inactive)
same,GI50,SK-MEL-28,> 100 µM (inactive)
same,GI50,DMS-273,31.6 µM (inactive)
same,GI50,SF-295,85.7 µM (inactive)
same,GI50,IGROV-1,80.5 µM (inactive)
same,GI50,U-251,40.4 µM (inactive)
same,GI50,RXF 631,37.1 µM (inactive)
same,GI50,K562,33.1 µM (inactive)
same,GI50,SN12C,54.1 µM (inactive)
same,GI50,HT-29,> 100 µM (inactive)
same,GI50,UACC-257,45.2 µM (inactive)
same,GI50,CAKI-1,33 µM (inactive)
same,GI50,OVCAR-3,54.1 µM (inactive)
same,GI50,RPMI-8226,31.2 µM (inactive)
same,GI50,TK-10,87.5 µM (inactive)
same,GI50,SNB-78,42.9 µM (inactive)
same,GI50,A549,41.7 µM (inactive)
same,GI50,RXF 393,26.6 µM (inactive)
same,GI50,KM-20L2,> 100 µM (inactive)
same,GI50,HCC 2998,86.3 µM (inactive)
same,GI50,SF-539,> 100 µM (inactive)
same,GI50,786-0,53 µM (inactive)
same,GI50,M19-MEL,61.7 µM (inactive)
same,GI50,SNB-75,16.3 µM (inactive)
same,GI50,EKVX,69.7 µM (inactive)
same,GI50,SW-620,50.6 µM (inactive)
same,GI50,NCI-H460,5.3 µM (inactive)
same,GI50,UO-31,22.1 µM (inactive)
same,GI50,OVCAR-4,44.4 µM (inactive)
same,GI50,HL-60,31 µM (inactive)
same,GI50,LXFL 529,48.3 µM (inactive)
same,GI50,OVCAR-8,60.8 µM (inactive)
same,GI50,ACHN,14.3 µM (inactive)
same,GI50,HOP-62,> 100 µM (inactive)
same,GI50,SK-MEL-2,62.4 µM (inactive)
same,GI50,COLO 205,61.1 µM (inactive)
same,GI50,A498,23.6 µM (inactive)
same,GI50,CCRF-CEM,34.8 µM (inactive)
same,GI50,NCI-H522,24.4 µM (inactive)
same,GI50,SF-268,42.1 µM (inactive)
same,GI50,MOLT-4,36.3 µM (inactive)
same,GI50,HCT-116,38.3 µM (inactive)
same,GI50,NCI-H23,27.6 µM (inactive)
same,GI50,Malme-3M,99.8 µM (inactive)
same,GI50,DMS-114,35.6 µM (inactive)
same,GI50,XF498,65.5 µM (inactive)
same,GI50,SK-OV-3,62.8 µM (inactive)
same,GI50,M14,31.2 µM (inactive)
same,GI50,DLD-1,37.2 µM (inactive)
CCOC(=O)C=C1CCN(C(=O)c2ccccc2)CC1,GI50,HCT-15,> 100 µM
same,GI50,UACC-62,> 100 µM (inactive)
same,GI50,HOP-18,> 100 µM (inactive)
same,GI50,KM12,> 100 µM (inactive)
same,GI50,SNB-19,> 100 µM (inactive)
same,GI50,SK-MEL-5,> 100 µM (inactive)
same,GI50,SK-MEL-28,> 100 µM (inactive)
same,GI50,DMS-273,> 100 µM (inactive)
same,GI50,SF-295,> 100 µM (inactive)
same,GI50,IGROV-1,> 100 µM (inactive)
same,GI50,U-251,> 100 µM (inactive)
same,GI50,RXF 631,> 100 µM (inactive)
same,GI50,K562,> 100 µM (inactive)
same,GI50,SN12C,> 100 µM (inactive)
same,GI50,HT-29,> 100 µM (inactive)
same,GI50,UACC-257,> 100 µM (inactive)
same,GI50,OVCAR-3,> 100 µM (inactive)
same,GI50,SR,15.4 µM (inactive)
same,GI50,RPMI-8226,> 100 µM (inactive)
same,GI50,TK-10,> 100 µM (inactive)
same,GI50,SNB-78,> 100 µM (inactive)
same,GI50,A549,> 100 µM (inactive)
same,GI50,RXF 393,> 100 µM (inactive)
same,GI50,KM-20L2,> 100 µM (inactive)
same,GI50,HCC 2998,> 100 µM (inactive)
same,GI50,SF-539,> 100 µM (inactive)
same,GI50,786-0,> 100 µM (inactive)
same,GI50,M19-MEL,> 100 µM (inactive)
same,GI50,SNB-75,> 100 µM (inactive)
same,GI50,EKVX,> 100 µM (inactive)
same,GI50,SW-620,> 100 µM (inactive)
same,GI50,NCI-H460,> 100 µM (inactive)
same,GI50,UO-31,> 100 µM (inactive)
same,GI50,LOX IMVI,> 100 µM (inactive)
same,GI50,OVCAR-4,> 100 µM (inactive)
same,GI50,HL-60,> 100 µM (inactive)
same,GI50,LXFL 529,> 100 µM (inactive)
same,GI50,OVCAR-5,> 100 µM (inactive)
same,GI50,OVCAR-8,> 100 µM (inactive)
same,GI50,ACHN,> 100 µM (inactive)
same,GI50,HOP-92,> 100 µM (inactive)
same,GI50,HOP-62,> 100 µM (inactive)
same,GI50,SK-MEL-2,< 0.01 µM (active)
same,GI50,COLO 205,> 100 µM (inactive)
same,GI50,A498,> 100 µM (inactive)
same,GI50,CCRF-CEM,> 100 µM (inactive)
same,GI50,SF-268,> 100 µM (inactive)
same,GI50,MOLT-4,> 100 µM (inactive)
same,GI50,HCT-116,> 100 µM (inactive)
same,GI50,NCI-H23,> 100 µM (inactive)
same,GI50,Malme-3M,> 100 µM (inactive)
same,GI50,XF498,> 100 µM (inactive)
same,GI50,SK-OV-3,> 100 µM (inactive)
same,GI50,M14,> 100 µM (inactive)
same,GI50,DLD-1,> 100 µM (inactive)
C=C=C(CC)C(C(=O)OC)N(CC)CC (stereo not drawn),GI50,UACC-62,> 100 µM (inactive)
same,GI50,HOP-18,> 100 µM (inactive)
same,GI50,KM12,> 100 µM (inactive)
same,GI50,SNB-19,> 100 µM (inactive)
same,GI50,SK-MEL-5,> 100 µM (inactive)
same,GI50,SK-MEL-28,> 100 µM (inactive)
same,GI50,SF-295,> 100 µM (inactive)
same,GI50,IGROV-1,> 100 µM (inactive)
same,GI50,U-251,> 100 µM (inactive)
same,GI50,RXF 631,> 100 µM (inactive)
same,GI50,K562,> 100 µM (inactive)
same,GI50,SN12C,> 100 µM (inactive)
same,GI50,HT-29,> 100 µM (inactive)
same,GI50,UACC-257,> 100 µM (inactive)
same,GI50,CAKI-1,> 100 µM (inactive)
same,GI50,OVCAR-3,> 100 µM (inactive)
same,GI50,SR,> 100 µM (inactive)
same,GI50,NCI-H226,> 100 µM (inactive)
same,GI50,RPMI-8226,> 100 µM (inactive)
same,GI50,TK-10,> 100 µM (inactive)
same,GI50,SNB-78,> 100 µM (inactive)
same,GI50,A549,> 100 µM (inactive)
same,GI50,RXF 393,> 100 µM (inactive)
same,GI50,KM-20L2,> 100 µM (inactive)
same,GI50,SF-539,> 100 µM (inactive)
same,GI50,786-0,> 100 µM (inactive)
same,GI50,M19-MEL,> 100 µM (inactive)
same,GI50,SNB-75,> 100 µM (inactive)
same,GI50,EKVX,> 100 µM (inactive)
same,GI50,SW-620,> 100 µM (inactive)
same,GI50,NCI-H460,> 100 µM (inactive)
same,GI50,UO-31,> 100 µM (inactive)
same,GI50,LOX IMVI,> 100 µM (inactive)
same,GI50,OVCAR-4,> 100 µM (inactive)
same,GI50,HL-60,> 100 µM (inactive)
same,GI50,LXFL 529,> 100 µM (inactive)
same,GI50,OVCAR-8,> 100 µM (inactive)
same,GI50,ACHN,> 100 µM (inactive)
same,GI50,HOP-92,> 100 µM (inactive)
same,GI50,HOP-62,> 100 µM (inactive)
same,GI50,COLO 205,> 100 µM (inactive)
same,GI50,A498,> 100 µM (inactive)
same,GI50,CCRF-CEM,> 100 µM (inactive)
same,GI50,NCI-H522,> 100 µM (inactive)
same,GI50,SF-268,> 100 µM (inactive)
same,GI50,MOLT-4,> 100 µM (inactive)
same,GI50,HCT-116,> 100 µM (inactive)
same,GI50,NCI-H23,> 100 µM (inactive)
same,GI50,Malme-3M,> 100 µM (inactive)
same,GI50,DMS-114,> 100 µM (inactive)
same,GI50,XF498,> 100 µM (inactive)
same,GI50,SK-OV-3,> 100 µM (inactive)
same,GI50,M14,> 100 µM (inactive)
same,GI50,DLD-1,> 100 µM (inactive)

# Reference: ChEMBL document CHEMBL1201862, “PubChem BioAssay data set” (2004)
